Test results: patent publication US12023390B2, “Isomerically pure 18F-labelled tetrahydrofolates” (MERCK PATENT GMBH, priority 2017, dated 2024)
Several values for one entry are separate records, joined by “and”; a condition that tells them apart may be missing. Equal values may be shown once.

Legend:
[1] = Distribution coefficient (log D7.4), shake flask method; assay type: physicochemical; conditions: n-octanol / phosphate buffer pH 7.4, room temperature
Description: The samples were shaken for 15 min in an overhead shaker and centrifuged for 3 min at 5000 rpm to separate the two phases. Aliquots (50 μL) of both phases were added to Eppendorftubes and then, analyzed in a γ-counter (Wizard, PerkinElmer). The partition coefficient is expressed as the radio between the radioactivity concentrations (cpm/mL) of the n-octanol and the phosphate buffer phase. Values represent the mean±standard deviation of sextuples from two independent experiments.

[2] = test system: FR-positive KB cells; experiment: Cell uptake and internalization using FR-positive KB cells; assay type: cell-based
Description: (§1) In order to investigate FR-specific cell uptake and internalization, cell uptake and internalization of 6R-[^18F]1 and 6S-[^18F]1 were carried out using FR-positive KB cells. Cell uptake increased constantly over time for both diastereoisomers resulting in an uptake of about 60% (calculated per 0.3 mg of protein) of total added radioactivity after 3 h of incubation at 37° C. (FIG. 22).

[3] = Metabolite studies / in vivo stability (radio-UPLC of blood plasma, liver, urine); parameters: species or system mice; conditions: samples taken p.i.
Description: as §1
The folate radiotracer 6S/6R-[^18F]5 (1:1 ratio, 53.7-52.3 MBq; 0.62-1.15 nmol) were intravenously injected into mice in order to determine the in vivo stability of the tracers. […] Ice-cold methanol containing 10 mg/mL 2-mercaptoethanol and 0.025% (v/v) ammonium hydroxide was added to the blood plasma, homogenized liver and urine in order to precipitate the proteins.^6 After centrifugation, the supernatants of the blood plasma, liver and urine samples were analyzed by radio-UPLC (FIG. 4).

[4] = biological target: T1, RT16 (FR-α) (Homo sapiens, UniProt P15328); experiment: Cell uptake and internalization in FR-α transfected CHO cells (RT16); assay type: cell-based
T1 construct: expressed in transfected cells; host or cells: CHO cells (RT16)
T1 sequence (P15328 25-234): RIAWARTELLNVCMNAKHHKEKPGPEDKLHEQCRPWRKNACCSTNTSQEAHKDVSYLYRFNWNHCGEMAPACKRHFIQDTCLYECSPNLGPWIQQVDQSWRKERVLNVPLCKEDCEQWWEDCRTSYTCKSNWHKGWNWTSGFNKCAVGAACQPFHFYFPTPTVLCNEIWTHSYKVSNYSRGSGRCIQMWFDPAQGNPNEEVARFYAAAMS
Description: (§2) The uptake and internalization of the oxidized (^18F-AzaFol) and reduced ^18F-folates (6S-isomer and 6R-isomer of ^18F-5-Me-Aza-THF) in D4 and RT16 cells which express the FR-α and FR-β, […] was studied. Both cell lines were kindly provided by Larry Matherly Wayne State University, Detroit, U.S.; Golani et al., J Med Chem, 2016, 59, 7856.
The internalized fraction of the radiotracers reached 8-10% after 1 h and increased slightly up to 9-12% after 3 h incubation.

[5] = biological target: T2, D4 (FR-β) (Homo sapiens, UniProt P14207); experiment: Cell uptake and internalization in FR-β transfected CHO cells (D4); assay type: cell-based
T2 construct: expressed in transfected cells; host or cells: CHO cells (D4)
T2 sequence (P14207 17-230): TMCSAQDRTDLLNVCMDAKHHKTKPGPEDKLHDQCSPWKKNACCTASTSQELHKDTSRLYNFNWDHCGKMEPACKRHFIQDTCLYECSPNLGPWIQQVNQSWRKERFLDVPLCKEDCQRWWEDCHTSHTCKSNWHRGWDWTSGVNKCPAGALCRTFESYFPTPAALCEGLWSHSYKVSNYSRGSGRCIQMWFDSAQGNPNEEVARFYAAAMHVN
Description: as §2
When using D4 cells that express the FR-β, the uptake of ^18F-AzaFol and the 6S-isomer of the reduced radiotracer reached approximately 70% after 1 h incubation and 80% after 3 h incubation. The internalized fraction of ^18F-AzaFol and the 6S-isomer of the reduced version was 20% and 12%, respectively, after 1 h incubation. These numbers increased slightly when the incubation time was extended to 3 h. […] No change was observed after additional two hours of incubation.

[6] = test system: KB tumor xenografts
[7] = test system: KB tumor-bearing mice; experiment: Biodistribution studies in KB tumor-bearing mice
Description: Biodistribution studies were performed 2 weeks after cell inoculation. The ^18F-folate radiotracers (˜5 MBq/mouse) were injected in a volume of 100 μL into a lateral tail vein. The animals were sacrificed at 30 min, 60 min and 90 min after administration of radiotracers. Selected tissues and organs were collected, weighed, and radioactivity was measured using a γ-counter. The results were listed as a percentage of the injected radioactivity per gram of tissue mass (% IA/g), using counts of a defined volume of the original injection solution measured at the same time resulting in decay corrected values.

[8] = biological target: FR-alpha (Homo sapiens, UniProt P15328); experiment: Selectivity for FR-alpha versus oxidized folic acid derivative (summary statement)
Sequence of FR-alpha (P15328 25-234, species assumed): as the sequence (P15328 25-234) above

[9] = biological target: Folate Receptor (Homo sapiens, UniProt P15328); conditions: cited from earlier work
Sequence of Folate Receptor (P15328 25-234): as above

[10] = KB tumor-bearing mice, 30 min p.i.
[11] = KB tumor-bearing mice, 30 min p.i., ratio
[12] = KB tumor-bearing mice, 60 min p.i.
[13] = KB tumor-bearing mice, 60 min p.i. & Folic Acid (100 μg 10 min prior)
[14] = KB tumor-bearing mice, 60 min p.i., ratio
[15] = KB tumor-bearing mice, 90 min p.i.
[16] = KB tumor-bearing mice, 90 min p.i., ratio
[17] = KB tumor-bearing mice, 90 min p.i., listed as 6S-form
[18] = KB tumor-bearing mice, 90 min p.i., listed as 6S-isomer

With “6S-3′-aza-2′-[^18F]fluoro-5-MTHF [6S-[^18F]1]” the logD7.4 [1] was −4.6 ± 0.1, the internalized activity ([2]; 37° C.) was about 16% and the “cell uptake (% of total added radioactivity)” value ([2]; 3 h incubation at 37° C., calculated per 0.3 mg of protein) was “about 60%”. The in vivo stability [3] was “Only intact parent compounds were found”, the “uptake into RT16 cells (in words)” value [4] was “significant uptake” and the “uptake into D4 cells (in words)” value ([5]; D4 (FR-β) cells) was “significant uptake”. The internalized fraction ([5]; D4 cells, 1 h incubation) was 12%, the uptake ([5]; D4 cells, 1 h incubation) was “approximately 70%” and the uptake ([5]; D4 cells, 3 h incubation) was about 80%. The “PET/CT: KB tumor xenograft uptake” value ([6]; already 1 h p.i.) was “High KB tumor xenograft uptake”, the “PET/CT: blocking studies, uptake in all FR-positive tissues” value ([6]; folic acid injected 10 minutes prior to radiotracer) was “remarkably reduced uptake” and the “Biodistribution: Blood” value [7, 10] was 1.52 ± 0.31 % IA/g. For the same compound, the “Biodistribution: Bone” value [7, 10] was 1.70 ± 0.13 % IA/g, the “Biodistribution: Feaces” value [7, 10] was 3.71 ± 2.34 % IA/g and the “Biodistribution: Gall Bladder” value [7, 10] was 20.0 ± 9.00 % IA/g. For the same compound, the “Biodistribution: Heart” value [7, 10] was 2.02 ± 0.22 % IA/g, the “Biodistribution: Intestines” value [7, 10] was 2.61 ± 0.65 % IA/g and the “Biodistribution: KB Tumor” value [7, 10] was 11.13±0.90 % IA/g and 11.1 ± 0.90 % IA/g. The “Biodistribution: Kidneys” value [7, 10] was 42.5 ± 2.73 % IA/g, the “Biodistribution: Liver” value [7, 10] was 8.10 ± 1.16 % IA/g and the “Biodistribution: Lung” value [7, 10] was 2.31 ± 0.42 % IA/g. For the same compound, the “Biodistribution: Muscle” value [7, 10] was 1.36 ± 0.25 % IA/g, the “Biodistribution: Salivary glands” value [7, 10] was 13.8 ± 2.06 % IA/g and the “Biodistribution: Spleen” value [7, 10] was 1.90 ± 0.34 % IA/g. For the same compound, the “Biodistribution: Stomach” value [7, 10] was 2.54 ± 0.56 % IA/g, the Tu-to-blood [7, 11] was 7.41 ± 0.96 and the Tu-to-liver [7, 11] was 1.38 ± 0.16. For the same compound, the “Biodistribution: Kidneys” value ([7]; KB tumor-bearing mice, 30 min p.i., listed as 6S-form) was 42.5±2.73 % IA/g, the “Biodistribution: Liver” value ([7]; KB tumor-bearing mice, 30 min p.i., listed as 6S-tracer) was 8.10±1.16 % IA/g and the “Biodistribution: Blood” value [7, 12] was 1.26 ± 0.08 % IA/g. For the same compound, the “Biodistribution: Bone” value [7, 12] was 1.38 ± 0.14 % IA/g, the “Biodistribution: Feaces” value [7, 12] was 4.85 ± 1.95 % IA/g and the “Biodistribution: Gall Bladder” value [7, 12] was 16.6 ± 8.91 % IA/g. For the same compound, the “Biodistribution: Heart” value [7, 12] was 1.53 ± 0.15 % IA/g, the “Biodistribution: Intestines” value [7, 12] was 2.58 ± 0.42 % IA/g and the “Biodistribution: KB Tumor” value [7, 12] was 14.2 ± 1.91 % IA/g. The “Biodistribution: Kidneys” value [7, 12] was 37.5 ± 3.61 % IA/g, the “Biodistribution: Liver” value [7, 12] was 6.28 ± 0.66 % IA/g and the “Biodistribution: Lung” value [7, 12] was 2.04 ± 0.09 % IA/g. For the same compound, the “Biodistribution: Muscle” value [7, 12] was 1.29 ± 0.14 % IA/g, the “Biodistribution: Salivary glands” value [7, 12] was 13.8 ± 1.28 % IA/g and the “Biodistribution: Spleen” value [7, 12] was 1.57 ± 0.16 % IA/g. For the same compound, the “Biodistribution: Stomach” value [7, 12] was 1.84 ± 0.33 % IA/g, the “Biodistribution: Blood” value [7, 13] was 1.09 ± 0.28 % IA/g and the “Biodistribution: Bone” value [7, 13] was 0.49 ± 0.12 % IA/g. For the same compound, the “Biodistribution: Feaces” value [7, 13] was 8.42 ± 2.10 % IA/g, the “Biodistribution: Gall Bladder” value [7, 13] was 5.87 ± 0.45 % IA/g and the “Biodistribution: Heart” value [7, 13] was 0.50 ± 0.13 % IA/g. The “Biodistribution: Intestines” value [7, 13] was 4.34 ± 0.93 % IA/g, the “Biodistribution: KB Tumor” value [7, 13] was 2.11 ± 0.38 % IA/g and the “Biodistribution: Kidneys” value [7, 13] was 2.28 ± 0.95 % IA/g. For the same compound, the “Biodistribution: Liver” value [7, 13] was 4.76 ± 0.87 % IA/g, the “Biodistribution: Lung” value [7, 13] was 0.84 ± 0.20 % IA/g and the “Biodistribution: Muscle” value [7, 13] was 0.26 ± 0.06 % IA/g. For the same compound, the “Biodistribution: Salivary glands” value [7, 13] was 0.89 ± 0.26 % IA/g, the “Biodistribution: Spleen” value [7, 13] was 0.90 ± 0.24 % IA/g and the “Biodistribution: Stomach” value [7, 13] was 0.73 ± 0.32 % IA/g. The Tu-to-blood [7, 14] was 11.3 ± 1.13, the Tu-to-kidney [7, 14] was 0.38 ± 0.04 and the Tu-to-liver [7, 14] was 1.87 ± 0.96. The “Biodistribution: Blood” value [7, 15] was 1.16 ± 0.20 % IA/g, the “Biodistribution: Bone” value [7, 15] was 1.49 ± 0.30 % IA/g and the “Biodistribution: Feaces” value [7, 15] was 4.57 ± 1.98 % IA/g. The “Biodistribution: Gall Bladder” value [7, 15] was 11.4 ± 7.18 % IA/g, the “Biodistribution: Heart” value [7, 15] was 1.48 ± 0.17 % IA/g and the “Biodistribution: Intestines” value [7, 15] was 2.34 ± 0.39 % IA/g. The “Biodistribution: KB Tumor” value [7, 15] was 19.2 ± 4.16 % IA/g, the “Biodistribution: Kidneys” value [7, 15] was 42.3 ± 7.05 % IA/g and the “Biodistribution: Liver” value [7, 15] was 5.86 ± 1.11 % IA/g. For the same compound, the “Biodistribution: Lung” value [7, 15] was 2.08 ± 0.35 % IA/g, the “Biodistribution: Muscle” value [7, 15] was 1.24 ± 0.14 % IA/g and the “Biodistribution: Salivary glands” value [7, 15] was 21.4 ± 4.59 % IA/g. For the same compound, the “Biodistribution: Spleen” value [7, 15] was 1.82 ± 0.49 % IA/g, the “Biodistribution: Stomach” value [7, 15] was 1.69 ± 0.33 % IA/g and the Tu-to-blood [7, 16] was 16.5 ± 0.59. The Tu-to-liver [7, 16] was 3.30 ± 0.59, the “Biodistribution: Kidneys” value [7, 17] was 42.3±7.05 % IA/g and the “Biodistribution: Liver” value [7, 17] was 5.86±1.11 % IA/g. The “Biodistribution: Salivary glands” value [7, 17] was 21.4±4.59 % IA/g, the “Biodistribution: KB Tumor” value [7, 18] was 19.2±4.16 % IA/g and the “Biodistribution: Spleen” value [7, 18] was 1.82±0.49 % IA/g. The “Biodistribution: Liver” value ([7]; KB tumor-bearing mice, 90 min p.i., listed as S-isomer) was 5.86±1.11 % IA/g, the “Specificity of tumor binding” value ([7]; blocking by pre-injection of folic acid) was 89% and the “factor of increase of tumor-to-kidney ratio” value ([7]; from 30 min p.i. to 90 min p.i.) was 1.7.
In the case of `CN1c2c(nc(N)[nH]c2=O)NCC1CNc1ccc(C(=O)N[C@@H](CCC(=O)O)C(=O)O)c([18F])n1` (some centres unmarked) [3′-aza-2′-[^18]fluoro-5-methyltetrahydrofolate], the “fold higher selectivity for FR-alpha than the respective oxidized folic acid derivative” value [8] is reported as 50 fold.
In the case of `Nc1nc2ncc(CNc3ccc(C(=O)N[C@H](CCC(=O)NC[C@H](N)C(=O)N[C@@H](CC(=O)O)C(=O)N[C@@H](CS)C(=O)O)C(=O)O)cc3)nc2c(=O)[nH]1` [EC20], the Kd [9] is given as 0.012 µM.
